Experimental data reported in US11028095B2, “Spiro-lactam and bis-spiro-lactam NMDA receptor modulators and uses thereof” (Aptinyx Inc., priority 2016, dated 2021).

Tests used:
IV pharmacokinetics = type: in vivo; settings: rat, in vivo, Sprague Dawley rats, 2 mg/kg, normal saline
Method: Sprague Dawley rats were dosed intravenously using a normal saline formulation containing 2 mg/kg of the compounds identified in the below table. The table below summarizes the results of the IV pharmacokinetics.

[1] = molecular target: T1, NMDAR2B expressing HEK cell membranes (Homo sapiens, UniProt Q05586+Q13224); assay: NMDAR agonist assay, [3H]MK-801 binding, NMDAR2B; type: biochemical
T1 construct: expressed in transfected cells; host or cells: HEK cells (membrane extract)
Method: (§1) (nonequilibrium conditions).
(§2) The baseline value was determined from the best fit curve of the DPM values modeled using the GraphPad program and the log(agonist) vs. response(three parameters) algorithm was then subtracted from all points in the dataset.

[2] = molecular target: T2, NMDAR2A expressing HEK cell membranes (Homo sapiens, UniProt Q05586+Q12879); assay: NMDAR agonist assay, [3H]MK-801 binding, NMDAR2A; type: biochemical
T2 construct: expressed in transfected cells; host or cells: HEK cells (membrane extract)
Method: as §1, §2

T1 sequence (Q13224 27-1484, other chains not shown): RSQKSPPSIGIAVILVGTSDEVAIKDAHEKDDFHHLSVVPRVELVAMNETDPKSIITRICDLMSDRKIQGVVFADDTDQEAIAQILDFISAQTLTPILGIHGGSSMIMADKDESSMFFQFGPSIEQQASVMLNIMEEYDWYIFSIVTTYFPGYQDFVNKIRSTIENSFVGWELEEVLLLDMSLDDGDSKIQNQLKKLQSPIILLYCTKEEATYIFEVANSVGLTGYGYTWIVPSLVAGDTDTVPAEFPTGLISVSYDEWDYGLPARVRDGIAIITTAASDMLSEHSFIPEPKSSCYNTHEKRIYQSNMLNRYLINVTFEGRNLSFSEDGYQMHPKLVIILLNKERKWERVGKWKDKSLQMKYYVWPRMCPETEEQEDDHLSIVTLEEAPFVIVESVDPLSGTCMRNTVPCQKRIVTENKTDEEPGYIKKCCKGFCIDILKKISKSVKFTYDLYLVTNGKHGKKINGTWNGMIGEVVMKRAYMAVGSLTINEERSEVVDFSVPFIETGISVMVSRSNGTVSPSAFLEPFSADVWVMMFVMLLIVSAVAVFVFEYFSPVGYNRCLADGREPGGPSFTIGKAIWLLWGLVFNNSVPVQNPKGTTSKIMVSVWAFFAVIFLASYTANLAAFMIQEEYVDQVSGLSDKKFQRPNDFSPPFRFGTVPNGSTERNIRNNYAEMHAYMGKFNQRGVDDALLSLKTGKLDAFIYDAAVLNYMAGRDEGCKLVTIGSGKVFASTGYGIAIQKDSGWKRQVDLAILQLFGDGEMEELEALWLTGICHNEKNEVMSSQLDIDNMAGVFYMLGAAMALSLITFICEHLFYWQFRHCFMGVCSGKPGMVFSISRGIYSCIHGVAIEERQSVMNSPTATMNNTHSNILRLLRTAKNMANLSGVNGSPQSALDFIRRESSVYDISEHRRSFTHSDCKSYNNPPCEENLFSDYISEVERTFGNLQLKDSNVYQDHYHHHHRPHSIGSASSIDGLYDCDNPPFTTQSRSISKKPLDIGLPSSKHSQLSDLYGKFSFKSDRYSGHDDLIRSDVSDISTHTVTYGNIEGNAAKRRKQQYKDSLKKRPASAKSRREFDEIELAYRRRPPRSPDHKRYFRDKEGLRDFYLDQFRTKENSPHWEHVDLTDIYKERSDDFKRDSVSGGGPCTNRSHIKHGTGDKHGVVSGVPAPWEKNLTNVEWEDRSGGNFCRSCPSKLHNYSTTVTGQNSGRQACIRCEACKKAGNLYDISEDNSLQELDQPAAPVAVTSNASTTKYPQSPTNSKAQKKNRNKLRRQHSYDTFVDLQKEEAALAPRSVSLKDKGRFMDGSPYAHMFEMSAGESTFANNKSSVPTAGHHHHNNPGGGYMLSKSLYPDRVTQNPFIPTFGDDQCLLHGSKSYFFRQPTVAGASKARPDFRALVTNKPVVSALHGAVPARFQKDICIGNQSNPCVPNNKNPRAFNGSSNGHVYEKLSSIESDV
T2 sequence (Q12879 23-1464, other chains not shown): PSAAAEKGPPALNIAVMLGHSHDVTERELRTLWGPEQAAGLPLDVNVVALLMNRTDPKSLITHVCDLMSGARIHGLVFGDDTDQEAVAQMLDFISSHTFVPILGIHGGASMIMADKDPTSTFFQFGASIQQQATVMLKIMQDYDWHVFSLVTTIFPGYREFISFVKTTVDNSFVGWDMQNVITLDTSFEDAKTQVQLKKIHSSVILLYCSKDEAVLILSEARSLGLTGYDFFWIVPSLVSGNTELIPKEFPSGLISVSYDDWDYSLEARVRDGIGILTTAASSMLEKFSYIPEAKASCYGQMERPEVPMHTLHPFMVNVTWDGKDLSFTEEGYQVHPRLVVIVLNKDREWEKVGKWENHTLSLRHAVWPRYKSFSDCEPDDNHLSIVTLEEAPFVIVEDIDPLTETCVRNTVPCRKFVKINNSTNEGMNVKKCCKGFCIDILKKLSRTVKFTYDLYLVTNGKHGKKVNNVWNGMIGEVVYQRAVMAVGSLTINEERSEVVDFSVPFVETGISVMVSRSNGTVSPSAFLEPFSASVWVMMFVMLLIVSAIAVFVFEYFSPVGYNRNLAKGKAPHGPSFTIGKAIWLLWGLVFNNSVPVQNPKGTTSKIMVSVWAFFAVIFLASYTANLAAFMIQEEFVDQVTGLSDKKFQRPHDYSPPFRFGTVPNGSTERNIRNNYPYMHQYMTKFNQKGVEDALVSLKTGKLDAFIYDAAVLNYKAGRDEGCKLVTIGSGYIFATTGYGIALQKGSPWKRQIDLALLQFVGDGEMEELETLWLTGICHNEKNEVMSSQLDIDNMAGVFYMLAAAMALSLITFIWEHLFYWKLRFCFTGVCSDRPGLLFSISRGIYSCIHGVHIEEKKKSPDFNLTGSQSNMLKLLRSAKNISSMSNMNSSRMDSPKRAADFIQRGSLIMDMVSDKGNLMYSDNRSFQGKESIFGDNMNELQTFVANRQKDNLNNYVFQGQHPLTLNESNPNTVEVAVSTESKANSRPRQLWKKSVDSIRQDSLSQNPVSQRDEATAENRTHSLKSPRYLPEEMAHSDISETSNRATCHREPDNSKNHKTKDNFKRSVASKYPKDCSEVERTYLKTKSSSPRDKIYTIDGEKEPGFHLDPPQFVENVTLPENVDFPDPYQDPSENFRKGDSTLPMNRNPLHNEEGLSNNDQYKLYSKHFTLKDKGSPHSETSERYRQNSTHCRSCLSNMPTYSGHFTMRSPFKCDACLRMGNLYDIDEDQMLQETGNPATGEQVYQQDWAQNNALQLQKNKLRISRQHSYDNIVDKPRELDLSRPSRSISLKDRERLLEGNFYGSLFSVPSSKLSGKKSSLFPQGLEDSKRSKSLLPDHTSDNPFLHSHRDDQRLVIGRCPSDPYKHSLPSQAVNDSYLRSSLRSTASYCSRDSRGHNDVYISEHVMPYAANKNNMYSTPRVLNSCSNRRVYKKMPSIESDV

SMILES: CC(C)CN1[C@@]2(CC[C@@]13CNC3=O)CNC2=O [Compound AD, 5-isobutyl-2,5,8-triazadispiro[3.1.36.24]undecane-1,7-dione]
- AUC(0-t) (IV pharmacokinetics): 4710 ng·h/mL
- clearance (IV pharmacokinetics): 7.01 mL/min/kg
- half-life (IV pharmacokinetics): 2.27 h
- C0 (IV pharmacokinetics; read-out: C0): 2800 ng/mL
- Vd (IV pharmacokinetics; read-out: Vss): 0.92 L/kg
- EC50 ([1]; NMDAR2B: log EC50, 50 μM glutamate, [3H]MK-801 binding): < 1 nM
- Emax ([1]; read-out: NMDAR2B: % maximal [3H]MK-801 binding relative to 1 mM glycine, 50 μM glutamate, relative to 1 mM glycine): < 100%
- EC50 ([2]; NMDAR2A: log EC50, 50 μM glutamate, [3H]MK-801 binding): < 1 nM
- Emax ([2]; read-out: NMDAR2A: % maximal [3H]MK-801 binding relative to 1 mM glycine, 50 μM glutamate, relative to 1 mM glycine): < 100%
